Structure (SMILES)	melting point
CC(C(C)P(c1ccccc1)c1ccccc1)P(c1ccccc1)c1ccccc1 (centres undefined)	104 to 109 °C
CC(=O)C(=CN)Cc1ccccc1	95 °C
CCCCCCCCCCCC(=O)OC1OC(CO)C(OC2OC(CO)C(O)C(O)C2O)C(O)C1O (centres undefined)	193 to 197 °C
S=c1sc2ccccc2n1CSc1nc2ccccc2s1	211 °C
Cc1ccc(F)c(C#N)c1	51 °C
NC(=O)c1cc(Cl)ccc1Cl	160 °C
NC(=O)c1ccc(Cl)c(Cl)c1	141 °C
CCCCCCC=CCC(=O)O	18 °C
CCCCCCCCCCCCOC(=O)c1ccc(N)cc1	82 °C
CCOC(=O)C(C#N)=C(SC)SC	70 °C
O=[N+]([O-])c1cnc2ccccc2c1O	> 345 °C
O=S(=O)(Cl)c1ccc(-c2cnco2)s1	80 to 82 °C
N#Cc1c(C(F)(F)F)cc(-c2cccs2)n(N)c1=O	234 °C
CC1CCC(C(C)C)C(OC(=O)C(=Cc2ccccc2)C(=O)c2ccccc2)C1 (centres undefined)	65 °C
CS(=O)(=O)c1ccc(F)c([N+](=O)[O-])c1	152 to 158 °C
FC(F)(F)c1ccc(Br)cn1	40 °C
Cc1nn(-c2ccccc2)nc1C(N)=O	175 to 177 °C
ClCc1cc(-c2cccs2)on1	32 to 34 °C
CCCC1C2C(=O)N(c3ccccc3)C(=O)C2ON1c1ccccc1 (centres undefined)	107 to 108 °C
CNCc1ccc(-c2ccccc2)nc1	39 to 41.5 °C
O=C1CNC(=O)CN1	300 °C
O=[N+]([O-])c1cccc2ncccc12	74 °C
CCOC(=O)COc1cccc2ccccc12	56.5 °C
CCOC(=O)c1ccc2c(c1)nnn2C	105 to 108 °C
NC(=S)NN=C1C2CCCC1C1(O)CCCCC1C2c1ccccc1 (centres undefined)	205 °C
Cc1ccc(C(O)c2ccc(C)cc2)cc1	71 °C

Structure (SMILES)	melting point
O=C(Cl)OCc1ccc([N+](=O)[O-])cc1	33 °C
CCCCC(CC)CO (centres undefined)	-70 °C
Oc1nccc(C(F)(F)F)n1	217 to 218 °C
CCC(Br)(CC)C(=O)NC(N)=O	118 °C
CC(C)(C)OC(=O)N1CSC[C@H]1C(=O)O	132 to 136 °C
Nc1ccc(CN2CCOCC2)cc1	99 to 100 °C
Cc1nc2ccccc2c(C(=O)O)c1C(=O)O	225 to 233 °C
N#CC1=C(N)Oc2ccc(Cl)cc2C1C(C#N)C#N (centres undefined)	155 to 156 °C
CCC=Cc1ccccc1	-43.1 °C
Nc1c(Br)cc([N+](=O)[O-])cc1Br	207 °C
O=C(Oc1c(F)c(F)c(F)c(F)c1F)c1cccc(-c2nccs2)c1	68.5 to 69.5 °C
NNC(=S)NCc1ccc2c(c1)OCO2	158 to 160 °C
CC12CCC(O)CC1CCC1C2CCC2(C)C1CCC2(C)O (centres undefined)	164 °C
FC(F)(F)c1ccc2cc[nH]c2c1	103 °C
CN1CCC(N(Cc2cccs2)c2ccccc2)CC1	95 °C
C=C1C(=O)C23C(OC(C)=O)CC4C5(C)CCCC4(C(OC(C)=O)OC5)C2C(OC(C)=O)CC1C3OC(C)=O (centres undefined)	224 °C
COc1cc(O)cc(OC)c1	46 °C
Cc1nc2ccccc2nc1C	105 °C
C=CCNc1nc(N)c(C(N)=O)s1	158 to 160 °C
CSc1nc(N)n[nH]1	130 to 133 °C
FC(F)(F)c1ccc2c(c1)Nc1ccccc1S2	189 °C
CC(=O)OC(C)CC(C)C (centres undefined)	-64 °C
C=CC(=O)ON1C(=O)CCC1=O	69 °C
CC(=O)c1csc([N+](=O)[O-])c1	59 to 61 °C
Cc1ccc(C)c2c(=O)c(=O)c12	133 °C
O=C(NCO)c1ccccc1	95 °C

Structure (SMILES)	melting point
O=C(Nc1cccnc1Cl)c1cccc(C(F)(F)F)c1	83 to 85 °C
NNC(=O)c1ccc[nH]1	232 to 235 °C
COc1cccc2[nH]ccc12	70 °C
CSc1cc(-c2ccc(F)cc2)n[nH]1	101 to 103 °C
O=C(NCN(CNC(=O)c1ccccc1)N(CNC(=O)c1ccccc1)CNC(=O)c1ccccc1)c1ccccc1	99 to 101 °C
Fc1cc(Br)ccc1Br	34 °C
FC(F)(F)c1cc(-c2cccs2)nc2cc(-c3cccs3)nn12	158 °C
O=C(O)C1CSC(c2ccccc2)N1 (mixture of isomers)	158 to 162 °C
O=C(O)/C=C/c1ccc(C(F)(F)F)cc1	230 to 234 °C
O=CN(C=O)C=O	100 to 101 °C
CCOC(=O)c1cncc(Br)c1	41 °C
CC(C)(C)OC(=O)N1CCN(C(=O)OCC2c3ccccc3-c3ccccc32)CC1C(=O)O (centres undefined)	156 to 158 °C
COc1cc(Cl)c(OC)cc1N	120 °C
CN(C)c1ccc(N=c2cc(-c3ccccc3)oc(-c3ccccc3)c2)cc1	148 °C
CCCCCCCCOC(=O)CCC	-55.6 °C
Cc1onc(-c2c(Cl)cccc2Cl)c1C(=O)Cl	92 to 95 °C
ON=C1CCCCCN1	168 to 170 °C
O=C(c1ccccc1)N1CCc2cc3c(cc21)CCN3C(=O)c1ccccc1	293 to 294 °C
C#CCCCCCCCC	-44 °C
COC(=O)c1ccccc1S(=O)(=O)NC(=O)Nc1nc(OC(F)F)cc(OC(F)F)n1	196 °C
CCCCCCn1c(=O)c2c(ncn2C)n(C)c1=O	82 °C
CCCCCCCCCCCCCCCCCCN=C=S	29 to 33 °C
COc1cc2c(cc1OCc1ccccc1)C(C)N(C)CC2 (centres undefined)	82 °C
CN(N=O)C(N)=O	121 °C
C=Cc1cccc(CC)c1	-101 °C
COc1ccc(/N=N/c2sc(CC#N)nc2C)cc1	158 °C

Structure (SMILES)	melting point
O=Cc1ccc2nonc2c1	58 °C
Cc1nc(Nc2ncc(C(=O)Nc3c(C)cccc3Cl)s2)cc(N2CCN(CCO)CC2)n1	283 °C
CC12CCC3C(CCC4=CC(=O)CCC43C)C1CCC2=O (centres undefined)	170 to 171 °C
CCCn1c(C(=O)O)cc2c(=O)n(C)c(=O)n(C)c21	139 °C
CC(=O)NC1C(Oc2ccccc2[N+](=O)[O-])OC(CO)C(O)C1O (centres undefined)	204 to 208 °C
COC1(OC)C2C=CC(C)(O2)C1C(=O)O (centres undefined)	176 to 178 °C
CC1(C)C(=O)Nc2ccccc21	154 °C
CCCCCCCC(C)CC (centres undefined)	-92.9 °C
C=CCC1(C2C=CCC2)C(=O)NC(=O)NC1=O (centres undefined)	140 °C
N#Cc1ccc(C=NNC(N)=S)cc1	243 to 247 °C
N#Cc1cnc(N2CCCCC2)nc1N	220 to 222 °C
O=C=Nc1ccc(F)cc1[N+](=O)[O-]	50 to 55 °C
FC1(F)C(F)(F)C(F)(F)C2(F)C(F)(C1(F)F)C(F)(F)C(F)(F)C1(F)C(F)(F)C(F)(F)C(F)(F)C(F)(F)C12F (centres undefined)	-20 °C
Cc1noc(NS(=O)(=O)c2ccc(N)cc2)c1C	193 °C
Nc1c(C(=O)O)cnc2c(C(=O)O)cnn12	256 °C
CC1(C)OC(=O)C(=Cc2ccccc2F)C(=O)O1	142 °C
Cl/C(=C\c1ccccc1)c1cccc2ccccc12	117 °C
O=[N+]([O-])c1ccc(Br)s1	44 °C
CC1=C(C(=O)OCc2ccccc2)C(c2ccc3ccccc3c2)NC(=O)N1C (centres undefined)	150 °C
NC(c1cccc2ccccc12)C(N)c1cccc2ccccc12 (centres undefined)	174 to 177 °C
Cc1cccc2c(O)cc(C(F)(F)F)nc12	128 to 131 °C
Cc1ccc(Br)nc1	43 °C
Cc1cc(Br)ncc1I	51 °C
CC(C)(C)c1ccc(S(=O)(=O)NCCBr)cc1	76 to 78 °C
CN(C)C(=O)CCCOC(=O)c1ccccc1	40.5 °C
O=[N+]([O-])c1ccc(C=NO)o1	163 °C

Structure (SMILES)	melting point
CC(C)(C)c1cc(O)cc(C(C)(C)C)c1	88 °C
CCOC(=O)c1cc2c(=O)oc3ccccc3c2n(Cc2ccccc2)c1=O	212 °C
C=C1C(=O)C23C4CC5C(C)(C=O)CCCC5(C(=O)O4)C2C(OC(C)=O)CC1C3O (centres undefined)	209 °C
O=Cc1sc(Br)c2c1OCCO2	175 to 176 °C
C1CCC(C2CCCCC2)CC1	3 to 4 °C
CC1CCc2cc3c(cc2N1C(=O)c1ccccc1)CCC(C)N3C(=O)c1ccccc1 (centres undefined)	270 °C
Cc1cccc(N2CC(CO)OC2=O)c1 (centres undefined)	76 °C
C=CCc1cc(OC)c(O)c(C(=O)NCCO)c1	95 °C
Brc1ccc(Oc2ccc(Br)c(Br)c2)cc1	48 to 49 °C
O=S(=O)(c1ccc(Cl)cc1)n1cccc1	116 to 118 °C
O=[N+]([O-])c1cccc(Cl)c1O	70 °C
CCCCCCCCBr	-55 °C
C=C1C(=O)C23C(OC(C)=O)CC4C5(C)CCCC4(C(OC)OC5)C2C(OC(C)=O)CC1C3OC(C)=O (centres undefined)	71 °C
CC(=O)OC1CCC2(C)C(=CCC3C2CCC2(C)C(C(C)=O)CCC32)C1 (centres undefined)	149 to 152 °C
O=C1C=C(O)CC(c2ccccc2)C1 (centres undefined)	187 °C
CCOC(=O)/C=C/c1ccc2ccc(=O)[nH]c2c1	209 to 210 °C
CNC1=CC(=O)C2(C)CCC1C2(C)C (centres undefined)	195 °C
COc1cc(O)c2c(=O)c(O)c(-c3ccc(OCc4ccccc4)c(O)c3)oc2c1	208 °C
BrC(=C(\Br)c1ccccc1)/C(Br)=C(\Br)c1ccccc1	236 °C
O=[N+]([O-])c1ncccc1O	71 °C
CC(=NO)c1cccnc1	103 to 105 °C
O=C(NCCCCc1ccccc1)c1cc([N+](=O)[O-])cc([N+](=O)[O-])c1	165 to 167 °C
C=CCSc1sc(C(=O)OCC)c2c1C(=O)CCC2	57 to 60 °C
CCCCCCCCc1ccc(C(Cl)=Cc2ccc(OCC)cc2)cc1	32 °C
CC1=CC(=O)CC1	3 to 5 °C

Source: a melting point compilation (Tetko et al.)
